The text below walks through data of patent US5856484A, “Sulfonylaminopyrimidine carboxylic acid derivatives having endothelin inhibiting activity” (Hoffmann-La Roche Inc., priority 1995, dated 1999).

The target of test [1] is T1, human ETA receptors (Homo sapiens, UniProt P25101).
T1 construct: made in house; host or cells: baculovirus-infected insect cells
T1 sequence (P25101 21-427): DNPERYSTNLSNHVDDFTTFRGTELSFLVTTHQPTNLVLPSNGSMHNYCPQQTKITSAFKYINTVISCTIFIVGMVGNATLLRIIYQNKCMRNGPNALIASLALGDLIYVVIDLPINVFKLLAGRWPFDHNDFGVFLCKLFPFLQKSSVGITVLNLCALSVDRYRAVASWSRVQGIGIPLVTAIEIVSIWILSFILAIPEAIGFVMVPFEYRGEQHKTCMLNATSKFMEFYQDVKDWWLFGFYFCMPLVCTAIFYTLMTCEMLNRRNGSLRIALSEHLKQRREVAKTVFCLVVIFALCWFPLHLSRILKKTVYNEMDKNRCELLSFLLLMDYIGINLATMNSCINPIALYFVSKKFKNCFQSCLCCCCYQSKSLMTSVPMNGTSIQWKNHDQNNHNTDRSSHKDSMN
The experiment in a line: Inhibition of endothelin binding to recombinant ETA receptors. To be noted: 125I-endothelin, baculovirus-insect cell membranes, 20° C. 2 hours or 4° C. 24 hours. The protocol:
I, Inhibition of endothelin binding to recombinant ETA receptors
A cDNA coding for human ETA receptors of human placenta was cloned (M. Adachi, Y.-Y. Yang, Y. Furuichi and C-Miyamoto, BBRC 180, 1265-1272) and expressed in the baculovirus-insect cell system. Baculovirus-infected insect cells from a 23 I fermentor are centrifuged off (3000×g, 15 minutes, 4° C.) 60 hours after the infection, re-suspended in Tris buffer (5 mM, pH 7.4, 1 mM MgCl2) and again centrifuged. After a further re-suspension and centrifugation the cells are suspended in 800 ml of the same buffer and freeze-dried at -120° C. The cells disintegrate when the suspension in this hypotonic buffer mixture is thawed. After a repeated freeze-drying/thawing cycle the suspension is homogenized and centrifuged (25000 x g, 15 minutes, 4° C.). After suspension in Tris buffer (75 mM, pH 7.4, 25 mM MgCl2, 250 mM sucrose) 1 ml aliquots (protein content about 3.5 mg/ml) are stored at -85° C.
(§1) For the binding assay, the freeze-dried membrane preparations are thawed and, after centrifugation at 20° C. and 25000 g for 10 minutes, re-suspended in assay buffer (50 mM Tris buffer pH 7.4, containing 25 mM MnCl2, 1 mM EDTA and 0.5% bovine serum albumin). 100 μl of this membrane suspension containing 5 μg of protein are incubated with 50 μl of ^125 I-endothelin (specific activity 2200 Ci/mMol) in assay buffer (25000 cpm, final concentration 20 μM) and 100 μl of assay buffer containing varying concentrations of test compound. The incubation is carried out at 20° C. for 2 hours or at 4° C. for 24 hours. The separation of free and membrane-bound radioligands is carried out by filtration over a glass fibre filter.
(§2) The inibitory activity on ETA and ETB receptors of compounds of formula I determined in these test procedures is given in Table 1 as the IC50, i.e. as the concentration [μM] which is required to inhibit 50% of the specific binding of ^125 I-endothelin.

Test [2] addresses T2, ETB receptors (Homo sapiens, UniProt P24530).
T2 construct: Human placenta is homogenized in 5 mM Tris buffer; from tissue; host or cells: human placenta membranes
T2 sequence (P24530 27-442): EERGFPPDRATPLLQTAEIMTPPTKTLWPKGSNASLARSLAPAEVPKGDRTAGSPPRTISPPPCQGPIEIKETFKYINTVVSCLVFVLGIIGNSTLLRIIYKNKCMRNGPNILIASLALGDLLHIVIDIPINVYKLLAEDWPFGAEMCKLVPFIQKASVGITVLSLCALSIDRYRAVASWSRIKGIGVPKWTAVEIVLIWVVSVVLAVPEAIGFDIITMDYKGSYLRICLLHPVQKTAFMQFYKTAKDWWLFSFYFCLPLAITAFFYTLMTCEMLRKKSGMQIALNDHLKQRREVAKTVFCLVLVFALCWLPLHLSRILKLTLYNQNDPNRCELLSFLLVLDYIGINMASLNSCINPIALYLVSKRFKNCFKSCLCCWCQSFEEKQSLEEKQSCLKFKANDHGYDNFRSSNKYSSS
Description: Inhibition of endothelin binding to human placenta membranes (ETB receptors). To be noted: 125I-endothelin, 20° C. 2 hours or 4° C. 24 hours. The protocol:
II. Inhibition of endothelin binding to human placenta membranes (ETB receptors) (see Life Sci 44:1429 (1989))
Human placenta is homogenized in 5 mM Tris buffer, pH 7.4, which contains 1 mM MgCl2 and 250 mM sucrose. The homogenizate is centrifuged at 4° C. and 3000 g for 15 minutes, the supernatant containing the plasma membrane fraction is centrifuged at 72000 g for 30 minutes and the precipitate is washed with 75 mM Tris buffer, pH 7.4, which contains 25 mM MgCl2. Thereafter, precipitate obtained from in each case 10 g of original tissue is suspended in 1 ml of 75 mM Tris buffer, pH 7.4, containing 25 mM MgCl2 and 250 mM sucrose and freeze-dried at -20° C. in 1 ml aliquots.
as §1, with “Tris buffer,” for “Tris buffer”, “containing 35” for “containing 5”, “^125 I-endotheline” for “^125 I-endothelin”, “2200 (Ci/mMol)” for “2200 Ci/mMol)”, “20 pM)” for “20 μM)”
as §2

pIC50: −log10 of the molar value.

As a reminder, the pIC50 is the negative decadic logarithm of the IC50, by convention in mol/L.

With `COc1cccc(Oc2c(NS(=O)(=O)c3ccc(C(C)(C)C)cc3)nc(C(=O)Nc3nnn[nH]3)nc2OCCO)c1` [Example 10, 4-(4-tert.Butyl-phenylsulphonylamino)-6-(2-hydroxy-ethoxy)-5-(3-methoxy-phenoxy)-pyrimidine-2-carboxylic acid (1 H-tetrazol-5-yl)-amide], the pIC50 in test [1] was 4.89; in test [2], 6.85.
As for `COc1cccc(Oc2c(NS(=O)(=O)c3ccc(C(C)(C)C)cc3)nc(C(=O)O)nc2OCCO)c1` [Example 1, 6-(4-tert.butyl-phenylsulphonylamino)-4-(2-hydroxy-ethoxy)-5-(3-methoxy-phenoxy)-pyrimidine-2-carboxylic acid], the pIC50 in test [1] was 4.14; in test [2] it was 7.10.
As to `COc1cccc(Oc2c(NS(=O)(=O)c3ccc(C(C)(C)C)cc3)nc(C(=O)Nc3ccccc3)nc2OCCO)c1` [Example 6, 6-(4-tert.butyl-phenylsulphonylamino)-4-(2-hydroxy-ethoxy)-5-(3-methoxy-phenoxy)-pyrimidine-2-carboxylic acid phenylamide], in test [1], the negative logarithm of the IC50 (pIC50) was 4.42.
The same measure, in the same setting: to `COc1ccc(Cl)c(Oc2c(NS(=O)(=O)c3ccc(C(C)(C)C)cc3)nc(C(=O)O)nc2OCCO)c1` [Example 2, 4-(4-tert.Butyl-phenylsulphonylamino)-5-(2-chloro-5-methoxy-phenoxy)-6-(2-hydroxy-ethoxy)-pyrimidine-2-carboxylic acid] belongs 5.74.
As to `COc1ccccc1Oc1c(NS(=O)(=O)c2ccc(C(C)(C)C)cc2)nc(C(=O)O)nc1OCCO` [Example 5, 6-(4-tert.butyl-phenylsulphonylamino)-4-(2-hydroxy-ethoxy)-5-(2-methoxy-phenoxy)-pyrimidine-2-carboxylic acid], the pIC50 was 4.79 in test [1] and 6.54 in test [2].
On to `COc1ccc(S(=O)(=O)Nc2nc(C(=O)Nc3ccccc3)nc(OCCO)c2Oc2cccc(OC)c2)cc1` [Example 7, 4-(2-Hydroxy-ethoxy)-5-(3-methoxy-phenoxy)-6-(4-methoxy-phenylsulphonylamino)-pyrimidine-2-carboxylic acid phenylamide], for which the pIC50 was 4.74 in test [1] and 6.52 in test [2].
For `COc1ccc(Cl)c(Oc2c(NS(=O)(=O)c3ccc(C(C)(C)C)cc3)nc(C(=O)Nc3ccccc3)nc2OCCO)c1` [Example 9, 4-(4-tert.Butyl-phenylsulphonylamino)-5-(2-chloro-5-methoxy-phenoxy)-6-(2-hydroxy-ethoxy)-pyrimidine-2-carboxylic acid phenylamide], the pIC50 in test [1] was 4.67; in test [2], 7.07.
In the case of `COc1ccccc1Oc1c(NS(=O)(=O)c2ccc(C(C)(C)C)cc2)nc(C(=O)Nc2ccccc2)nc1OCCO` [Example 8, 6-(4-tert.Butyl-phenylsulphonylamino)-5-(2-methoxy-phenoxy)-4-(2-hydroxy-ethoxy)-pyrimidine-2-carboxylic acid phenylamide], the pIC50 in test [1] is 4.89; in test [2], 7.22.
